The target of test [1] is T1, Muscarinic acetylcholine receptor M4 (Homo sapiens, UniProt P08173).
T1 sequence (P08173 whole entry): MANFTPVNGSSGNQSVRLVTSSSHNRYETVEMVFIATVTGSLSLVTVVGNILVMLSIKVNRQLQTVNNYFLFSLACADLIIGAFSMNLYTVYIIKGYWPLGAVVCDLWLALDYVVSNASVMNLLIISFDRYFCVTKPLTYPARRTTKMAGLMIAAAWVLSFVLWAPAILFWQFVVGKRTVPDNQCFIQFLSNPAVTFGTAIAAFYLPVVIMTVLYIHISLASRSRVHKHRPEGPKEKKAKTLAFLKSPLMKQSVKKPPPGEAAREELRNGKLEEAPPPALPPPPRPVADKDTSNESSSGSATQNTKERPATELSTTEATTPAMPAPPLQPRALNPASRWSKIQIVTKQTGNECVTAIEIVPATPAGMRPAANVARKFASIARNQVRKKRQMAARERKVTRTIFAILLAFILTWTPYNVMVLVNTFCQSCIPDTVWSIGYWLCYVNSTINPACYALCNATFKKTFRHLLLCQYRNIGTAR
Kind of test: Agonist activity at human recombinant muscarinic M4 receptor by HTS cell based assay. The class given is functional.

Test [2] concerns the target T2, Muscarinic acetylcholine receptor M2 (Homo sapiens, UniProt P08172).
T2 sequence (P08172 whole entry): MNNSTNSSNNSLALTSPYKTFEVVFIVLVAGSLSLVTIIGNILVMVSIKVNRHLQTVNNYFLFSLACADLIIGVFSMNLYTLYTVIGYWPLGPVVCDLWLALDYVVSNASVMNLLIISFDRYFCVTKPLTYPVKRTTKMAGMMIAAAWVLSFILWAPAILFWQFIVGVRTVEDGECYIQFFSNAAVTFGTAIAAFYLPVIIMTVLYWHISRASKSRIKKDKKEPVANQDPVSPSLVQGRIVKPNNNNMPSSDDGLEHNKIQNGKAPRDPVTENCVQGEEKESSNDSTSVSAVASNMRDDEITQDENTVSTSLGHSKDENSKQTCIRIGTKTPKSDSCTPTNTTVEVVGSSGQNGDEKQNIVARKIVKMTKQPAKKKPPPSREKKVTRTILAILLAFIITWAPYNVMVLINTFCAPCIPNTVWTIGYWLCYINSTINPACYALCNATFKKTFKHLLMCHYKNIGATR
Briefly: Agonist activity at human recombinant muscarinic M2 receptor by HTS cell based assay. The class given is functional.

Test [3] addresses T3, Muscarinic acetylcholine receptor M2 (Rattus norvegicus, UniProt P10980).
T3 sequence (P10980 whole entry): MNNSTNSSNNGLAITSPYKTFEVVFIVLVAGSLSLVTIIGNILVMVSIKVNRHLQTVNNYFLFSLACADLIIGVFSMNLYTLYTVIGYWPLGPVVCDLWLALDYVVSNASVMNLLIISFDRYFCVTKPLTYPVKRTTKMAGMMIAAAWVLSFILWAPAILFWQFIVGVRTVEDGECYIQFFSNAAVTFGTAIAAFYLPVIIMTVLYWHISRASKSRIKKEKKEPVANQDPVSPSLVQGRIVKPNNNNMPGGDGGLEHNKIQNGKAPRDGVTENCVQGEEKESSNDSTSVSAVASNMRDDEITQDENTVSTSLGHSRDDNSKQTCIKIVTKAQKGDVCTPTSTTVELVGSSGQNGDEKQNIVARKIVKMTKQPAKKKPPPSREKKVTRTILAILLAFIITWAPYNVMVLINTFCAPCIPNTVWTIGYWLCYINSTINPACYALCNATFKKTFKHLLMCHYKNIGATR
Briefly: Agonist activity at rat recombinant muscarinic M2 receptor by HTS cell based assay. The class given is functional.

For test [4], the target named is T4, Muscarinic acetylcholine receptor M5 (Rattus norvegicus, UniProt P08911).
T4 sequence (P08911 whole entry): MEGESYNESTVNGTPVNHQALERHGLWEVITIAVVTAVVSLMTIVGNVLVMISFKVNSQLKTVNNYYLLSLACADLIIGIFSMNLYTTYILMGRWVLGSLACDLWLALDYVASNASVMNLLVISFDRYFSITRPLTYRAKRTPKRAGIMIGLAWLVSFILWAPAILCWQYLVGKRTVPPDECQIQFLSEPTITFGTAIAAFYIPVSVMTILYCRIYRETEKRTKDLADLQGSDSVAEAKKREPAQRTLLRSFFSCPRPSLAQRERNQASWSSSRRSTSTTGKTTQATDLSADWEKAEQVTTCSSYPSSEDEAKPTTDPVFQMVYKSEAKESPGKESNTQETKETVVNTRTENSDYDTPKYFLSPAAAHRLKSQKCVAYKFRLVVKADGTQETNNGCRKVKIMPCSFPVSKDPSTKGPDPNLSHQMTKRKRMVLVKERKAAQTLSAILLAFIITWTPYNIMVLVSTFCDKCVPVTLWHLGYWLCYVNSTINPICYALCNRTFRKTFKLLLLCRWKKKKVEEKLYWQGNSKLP
Kind of test: Agonist activity at rat recombinant muscarinic M5 receptor by HTS cell based assay. The class given is functional.

Test [5] addresses Muscarinic acetylcholine receptor M3 (Rattus norvegicus, UniProt P08483). Briefly: Agonist activity at rat recombinant muscarinic M3 receptor by HTS cell based assay. The class given is functional.
Test [6] has as its target D(2) dopamine receptor (Homo sapiens, UniProt P14416). Kind of test: Antagonist activity at dopamine D2 receptor. The class given is functional.
In test [7] the target is T5, Muscarinic acetylcholine receptor M1 (Rattus norvegicus) (UniProt P08482).
T5 sequence (whole entry): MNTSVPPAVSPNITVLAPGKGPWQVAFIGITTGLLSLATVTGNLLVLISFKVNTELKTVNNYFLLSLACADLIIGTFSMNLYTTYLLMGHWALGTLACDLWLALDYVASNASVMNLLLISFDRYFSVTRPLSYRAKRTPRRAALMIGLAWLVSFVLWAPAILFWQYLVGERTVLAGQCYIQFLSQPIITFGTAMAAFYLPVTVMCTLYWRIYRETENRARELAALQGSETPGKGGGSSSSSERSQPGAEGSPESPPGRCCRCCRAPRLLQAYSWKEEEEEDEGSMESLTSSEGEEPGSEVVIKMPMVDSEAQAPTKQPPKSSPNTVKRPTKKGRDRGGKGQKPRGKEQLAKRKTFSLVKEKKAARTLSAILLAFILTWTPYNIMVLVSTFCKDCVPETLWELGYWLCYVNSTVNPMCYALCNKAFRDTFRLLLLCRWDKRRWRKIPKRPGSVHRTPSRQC
Kind of test: Agonist activity at rat muscarinic M1 receptor expressed in CHO cells relative to acetylcholine. The class given is functional, cell-based.

Test [8] concerns the target T6, Muscarinic acetylcholine receptor M1 (Rattus norvegicus, UniProt P08482).
T6 sequence (P08482 whole entry): T5 sequence (whole entry)
Kind of test: Agonist activity at rat recombinant muscarinic M1 receptor by HTS cell based assay. The class given is functional.

The target of test [9] is T6, Muscarinic acetylcholine receptor M1. Kind of test: Agonist activity at rat muscarinic M1 receptor expressed in CHO cells. The class given is functional, cell-based.

pEC50, pIC50: −log10 of the molar value.

Chain of Muscarinic acetylcholine receptor M3 (P08483 whole entry): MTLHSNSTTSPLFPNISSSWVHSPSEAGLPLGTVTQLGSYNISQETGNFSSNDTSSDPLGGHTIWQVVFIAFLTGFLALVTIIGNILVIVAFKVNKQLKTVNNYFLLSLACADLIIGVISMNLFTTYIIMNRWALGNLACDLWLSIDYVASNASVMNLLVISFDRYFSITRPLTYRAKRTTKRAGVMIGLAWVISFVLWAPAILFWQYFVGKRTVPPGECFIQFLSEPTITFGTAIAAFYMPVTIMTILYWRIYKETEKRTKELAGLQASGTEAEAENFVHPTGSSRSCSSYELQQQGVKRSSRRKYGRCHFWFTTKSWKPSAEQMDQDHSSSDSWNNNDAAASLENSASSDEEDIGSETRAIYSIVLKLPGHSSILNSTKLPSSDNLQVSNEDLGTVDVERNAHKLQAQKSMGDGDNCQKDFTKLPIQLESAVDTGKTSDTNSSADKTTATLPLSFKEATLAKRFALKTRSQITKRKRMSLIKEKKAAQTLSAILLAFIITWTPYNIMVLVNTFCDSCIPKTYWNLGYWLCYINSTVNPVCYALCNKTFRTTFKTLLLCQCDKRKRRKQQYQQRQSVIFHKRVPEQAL
Chain of D(2) dopamine receptor (P14416 whole entry): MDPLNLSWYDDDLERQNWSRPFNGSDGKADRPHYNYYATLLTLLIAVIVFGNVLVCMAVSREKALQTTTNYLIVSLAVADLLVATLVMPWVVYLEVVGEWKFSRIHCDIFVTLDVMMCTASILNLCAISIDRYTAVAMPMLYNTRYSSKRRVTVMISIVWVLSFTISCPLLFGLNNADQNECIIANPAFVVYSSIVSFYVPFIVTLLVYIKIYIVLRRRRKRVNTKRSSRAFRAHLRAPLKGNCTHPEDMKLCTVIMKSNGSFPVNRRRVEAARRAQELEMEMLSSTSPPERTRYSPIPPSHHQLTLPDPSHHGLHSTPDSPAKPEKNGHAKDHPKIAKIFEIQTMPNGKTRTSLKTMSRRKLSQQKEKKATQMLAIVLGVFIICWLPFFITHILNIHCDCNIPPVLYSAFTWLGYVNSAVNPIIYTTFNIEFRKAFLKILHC

Broadly, the pEC50 is −log10 of the EC50, conventionally taken in molar units. The pIC50 is the negative decadic logarithm of the IC50, by convention in mol/L. Read a high pIC50 as a small IC50. As a reminder, the Emax is the greatest response seen or fitted, relative to the assay's reference. As to `CCOC(=O)N1CCC(NCCNC(=O)c2ccccc2C)CC1`, the pEC50 was less than 4.52 in test [1]; less than 4.52 in [2]; less than 4.52 in test [3]; less than 4.52 in test [4]; less than 4.52 in test [5]; 5.64 in test [8]. This molecule showed a negative logarithm of the EC50 (pEC50) in test [9] (cho) of 6.70. Further, the pIC50 in [6] was 5.35. In [7], this molecule registered an Emax of 81%.
As for `CCOC(=O)N1CCC(N2CCC[C@@H](NC(=O)c3ccccc3C)C2)CC1`, the pEC50 in [1] was less than 4.52; in [2] it was less than 4.52; in test [3] it was less than 4.52; in test [4], less than 4.52; in test [5] it was less than 4.52; in test [8], 5.89. The molecule also had a negative logarithm of the EC50 (pEC50) in test [9] of 6.96. The molecule further had a pIC50 in test [6] of less than 4.52. The Emax in test [7] amounted to 96%.

(Values after ChEMBL document CHEMBL1914417 (Bioorg Med Chem Lett, 2011).)
